Consider 36 compounds from patent US20230078764A1 (Yumanity Therapeutics, Inc., priority 2019, published 2023).

Test [1] concerns the target T1, human SCD1 (Homo sapiens, UniProt O00767).
T1 construct: expressed in transfected cells; host or cells: yeast strain with OLE1 deleted, plasmid-borne human SCD1 (selected in SD-Ura)
T1 sequence (O00767 1-359): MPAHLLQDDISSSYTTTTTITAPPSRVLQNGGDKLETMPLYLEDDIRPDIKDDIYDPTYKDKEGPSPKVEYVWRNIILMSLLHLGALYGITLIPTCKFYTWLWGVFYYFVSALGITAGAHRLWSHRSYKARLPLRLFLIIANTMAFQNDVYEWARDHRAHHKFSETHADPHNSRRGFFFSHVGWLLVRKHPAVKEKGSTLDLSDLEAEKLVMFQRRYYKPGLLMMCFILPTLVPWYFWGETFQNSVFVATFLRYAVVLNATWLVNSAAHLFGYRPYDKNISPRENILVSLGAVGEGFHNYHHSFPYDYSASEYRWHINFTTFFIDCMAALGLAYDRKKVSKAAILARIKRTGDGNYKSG
The test can be described thus: Growth inhibition of yeast strain expressing human SCD1 as sole desaturase (OLE1 deleted), OD600 readout. The test is classed as cell-based.

Test [2] deals with T2, human SCD5 (Homo sapiens, UniProt Q86SK9).
T2 construct: expressed in transfected cells; host or cells: yeast strain with OLE1 deleted, plasmid-borne human SCD5 (selected in SD-Ura)
T2 sequence (Q86SK9 1-330): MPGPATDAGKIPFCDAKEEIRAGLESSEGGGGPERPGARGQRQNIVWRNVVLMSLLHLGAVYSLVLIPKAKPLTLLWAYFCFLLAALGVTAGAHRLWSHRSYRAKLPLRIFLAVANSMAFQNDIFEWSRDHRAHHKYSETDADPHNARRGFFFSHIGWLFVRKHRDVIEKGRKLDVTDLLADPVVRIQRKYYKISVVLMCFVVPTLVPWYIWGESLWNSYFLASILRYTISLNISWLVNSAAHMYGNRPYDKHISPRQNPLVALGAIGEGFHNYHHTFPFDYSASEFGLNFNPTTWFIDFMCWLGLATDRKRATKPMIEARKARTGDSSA
In words: Growth inhibition of yeast strain expressing human SCD5 as sole desaturase (OLE1 deleted), OD600 readout. The test is classed as cell-based.

The mark [3] stands for this setting: yeast strain expressing human SCD1 as sole desaturase, growth (OD600) after 40 h at 30° C., read-out: SCD1 IC50.
Setting [4] is: yeast strain expressing human SCD5 as sole desaturase, growth (OD600) after 40 h at 30° C., read-out: SCD5 IC50.

Read-outs that look alike come from different tables or passages of the source.

In the case of `CN1N=C(C(=O)Nc2ncc(Cc3ccc(Cl)cc3)s2)CCC1=O` [Compound 213, N-(5-(4-chlorobenzyl)thiazol-2-yl)-1-methyl-6-oxo-1,4,5,6-tetrahydropyridazine-3-carboxamide], the IC50 in test [1] (setting [3]) turned out to be 0.39 µM; in test [2] (setting [4]) it was 0.38 µM.
For `CC(c1cccc(F)c1)c1cnc(NC(=O)C2=NN(C)C(=O)CC2)s1` (stereo not drawn) [Compound 214, N-(5-(1-(3-fluorophenyl)ethyl)thiazol-2-yl)-1-methyl-6-oxo-1,4,5,6-tetrahydropyridazine-3-carboxamide], in that order: 14.5 µM and 1.75 µM.
In the same order, the values of `CN1N=C(C(=O)Nc2ncc(Cc3cc(F)cc(Cl)c3)s2)CCC1=O` [Compound 216, N-(5-(3-chloro-5-fluorobenzyl)thiazol-2-yl)-1-methyl-6-oxo-1,4,5,6-tetrahydropyridazine-3-carboxamide] are 0.01 µM and 0.02 µM.
For `CN1N=C(C(=O)Nc2nc(Cl)c(Cc3cccc(F)c3)s2)CCC1=O` [Compound 218, N-(4-chloro-5-(3-fluorobenzyl)thiazol-2-yl)-1-methyl-6-oxo-1,4,5,6-tetrahydropyridazine-3-carboxamide], the values for the IC50 in test [1] (setting [3]) and in test [2] (setting [4]) were 2.73 µM and 0.36 µM, respectively.
As for `Cc1nc(NC(=O)C2=NN(C)C(=O)CC2)sc1Cc1cccc(F)c1` [Compound 219, N-(5-(3-fluorobenzyl)-4-methylthiazol-2-yl)-1-methyl-6-oxo-1,4,5,6-tetrahydropyridazine-3-carboxamide], the IC50 worked out at 1.58 µM in test [1] (setting [3]) and 1.35 µM in test [2] (setting [4]).
`CN1N=C(C(=O)Nc2ncc(Cc3cccc(F)c3)s2)CCC1=O` [Compound 220]: the IC50 in test [1] (setting [3]) is 0.66 µM; in test [2] (setting [4]), 0.52 µM.
Take `CN1N=C(C(=O)N(C)c2ncc(Cc3cccc(F)c3)s2)CCC1=O` [Compound 221]: the IC50 in test [1] (setting [3]) and in test [2] (setting [4]) was greater than 45 µM each time.
Turning to `CC(C)N1N=C(C(=O)Nc2ncc(Cc3cccc(Cl)c3)s2)CCC1=O` [Compound 222, N-(5-(3-Chlorobenzyl)thiazol-2-yl)-1-isopropyl-6-oxo-1,4,5,6-tetrahydropyridazine-3-carboxamide], the IC50 in test [1] (setting [3]) came out at 7.45 µM; in test [2] (setting [4]), 2.51 µM.
For the compound `CN1CC(C(=O)Nc2ncc(Cc3cccc(F)c3)s2)CCC1=O` (stereo not drawn) [Compound 223, N-(5-(3-fluorobenzyl)thiazol-2-yl)-1-methyl-6-oxopiperidine-3-carboxamide], the IC50 in test [1] (setting [3]) was greater than 45 µM; in test [2] (SCD5 IC50), 11.3 µM.
Turning to `Cn1cc(C(=O)Nc2ncc(Cc3cccc(F)c3)s2)ccc1=O` [Compound 224, N-(5-(3-fluorobenzyl)thiazol-2-yl)-1-methyl-6-oxo-1,6-dihydropyridine-3-carboxamide], the values for the IC50 in test [1] (SCD1 IC50) and in test [2] (SCD5 IC50) were 0.31 µM and 0.22 µM, respectively.
In the case of `O=C(Nc1ncc(Cc2cccc(Cl)c2)s1)c1ccc(=O)n(C2COC2)n1` [Compound 225, N-(5-(3-chlorobenzyl)thiazol-2-yl)-1-(oxetan-3-yl)-6-oxo-1,6-dihydropyridazine-3-carboxamide], the IC50 in test [1] (setting [3]) is 2.07 µM; in test [2] (setting [4]) it was 1.96 µM.
In the same order, the values of `O=C(Nc1ncc(Cc2cccc(F)c2)s1)c1ccc(=O)n(CCF)n1` [Compound 226, N-(5-(3-fluorobenzyl)thiazol-2-yl)-1-(2-fluoroethyl)-6-oxo-1,6-dihydropyridazine-3-carboxamide] are 7.27 µM and 5.71 µM.
In the same order, the values of `CCn1nc(C(=O)Nc2ncc(Cc3cccc(F)c3)s2)ccc1=O` [Compound 227, 1-ethyl-N-(5-(3-fluorobenzyl)thiazol-2-yl)-6-oxo-1,6-dihydropyridazine-3-carboxamide] are 0.44 µM and 0.36 µM.
In the same order, the values of `CN1N=C(C(=O)Nc2ncc(Cc3cc(F)cc(F)c3)s2)CCC1=O` [Compound 229, N-(5-(3,5-difluorobenzyl)thiazol-2-yl)-1-methyl-6-oxo-1,4,5,6-tetrahydropyridazine-3-carboxamide] are 0.14 µM and 0.11 µM.
Regarding `CN1N=C(C(=O)Nc2ncc(Cc3ccccc3Cl)s2)CCC1=O` [Compound 230, N-(5-(2-chlorobenzyl)thiazol-2-yl)-1-methyl-6-oxo-1,4,5,6-tetrahydropyridazine-3-carboxamide], the values for the IC50 in test [1] (setting [3]) and in test [2] (setting [4]) were 2.88 µM and 3.8 µM, respectively.
In the same order, the values of `CN1N=C(C(=O)Nc2ncc(Cc3cncc(Cl)c3)s2)CCC1=O` [Compound 231, N-(5-((5-chloropyridin-3-yl)methyl)thiazol-2-yl)-1-methyl-6-oxo-1,4,5,6-tetrahydropyridazine-3-carboxamide] are 8.93 µM and 3.17 µM.
In the same order, the values of `Cn1nc(C(=O)Nc2nc(Cl)c(Cc3cccc(F)c3)s2)ccc1=O` [Compound 232, N-(4-chloro-5-(3-fluorobenzyl)thiazol-2-yl)-1-methyl-6-oxo-1,6-dihydropyridazine-3-carboxamide] are 0.14 µM and 0.07 µM.
Take `Cn1nc(C(=O)Nc2nc(C#N)c(Cc3cccc(F)c3)s2)ccc1=O` [Compound 233, N-(4-cyano-5-(3-fluorobenzyl)thiazol-2-yl)-1-methyl-6-oxo-1,6-dihydropyridazine-3-carboxamide]: the IC50 in test [1] (setting [3]) stood at 1.63 µM; in test [2] (setting [4]), 0.87 µM.
For `CN1N=C(C(=O)Nc2ncc(Cc3ccc(F)cc3F)s2)CCC1=O` [Compound 234, N-(5-(2,4-difluorobenzyl)thiazol-2-yl)-1-methyl-6-oxo-1,4,5,6-tetrahydropyridazine-3-carboxamide], in that order: 6.3 µM and 1.44 µM.
As for `CN1N=C(C(=O)Nc2ncc(Cc3cc(F)ccc3F)s2)CCC1=O` [Compound 235, N-(5-(2,5-difluorobenzyl)thiazol-2-yl)-1-methyl-6-oxo-1,4,5,6-tetrahydropyridazine-3-carboxamide], the IC50 in test [1] (setting [3]) came out at 1.88 µM; in test [2] (setting [4]), 1.77 µM.
For the compound `Cn1nc(C(=O)Nc2ncc(Cc3cccc(Cl)c3)s2)ccc1=O` [Compound 236, N-(5-(3-chlorobenzyl)thiazol-2-yl)-1-methyl-6-oxo-1,6-dihydropyridazine-3-carboxamide], the IC50 in test [1] (setting [3]) and in test [2] (setting [4]) was 0.01 µM in each case.
For the compound `CN1N=C(C(=O)Nc2ncc(N(C)c3cccc(F)c3)s2)CCC1=O` [Compound 237, N-(5-((3-fluorophenyl)(methyl)amino)thiazol-2-yl)-1-methyl-6-oxo-1,4,5,6-tetrahydropyridazine-3-carboxamide], the IC50 turned out to be 7.21 µM in test [1] (setting [3]) and 3.2 µM in test [2] (setting [4]).
With `O=C(Nc1ccc(Cc2cccc(F)c2)nn1)c1ccc2nccn2n1` [Compound 238], the IC50 in test [1] (setting [3]) worked out at 4.06 µM; in test [2] (setting [4]) it was 3.96 µM.
Consider `Cc1cc(C(=O)Nc2ccc(Cc3cccc(F)c3)cn2)nc(C)n1` [Compound 239], for which the IC50 in test [1] (setting [3]) stood at 0.25 µM; in test [2] (setting [4]) it was 0.01 µM.
For `Cn1ccc(C(=O)Nc2ccc(Cc3cccc(F)c3)cn2)cc1=O` [Compound 240], in that order: 4.39 µM and 0.31 µM.
As to `Cc1ccc(C(=O)Nc2ccc(Cc3ccc(F)c(F)c3)cn2)nn1` [Compound 241], the IC50 was 2.03 µM in test [1] (setting [3]) and 0.07 µM in test [2] (setting [4]).
Regarding `Cc1nccc(C(=O)Nc2ccc(Cc3cc(F)cc(F)c3)cn2)n1` [Compound 242], the concentration for half-maximal inhibition (IC50) stood at 0.05 µM in test [1] (setting [3]) and 0.01 µM in test [2] (setting [4]).
For `Cc1ccc(C(=O)Nc2ccc(Cc3cccc(Cl)c3)cn2)nn1` [Compound 243], in that order: 0.06 µM and 0.01 µM.
In the case of `Cc1nccc(C(=O)Nc2ccc(Cc3ccc(F)c(Cl)c3)cn2)n1` [Compound 244], the IC50 in test [1] (setting [3]) and in test [2] (setting [4]) was 0.01 µM each time.
For `CN1N=C(C(=O)Nc2ncc(Cc3cccc(F)c3)nn2)CCC1=O` [Compound 245], the IC50 in test [1] (setting [3]) and in test [2] (setting [4]) was greater than 45 µM throughout.
As for `CN1N=C(C(=O)Nc2ccc(CCc3cccc(Cl)c3)nn2)CCC1=O` [Compound 246], the IC50 in test [1] (setting [3]) is 6.45 µM; in test [2] (setting [4]), 1.59 µM.
Regarding `CN1N=C(C(=O)Nc2ccc(Cc3ccc(Cl)s3)nn2)CCC1=O` [Compound 247], the values for the IC50 in test [1] (setting [3]) and in test [2] (setting [4]) were greater than 45 µM and 2.02 µM, respectively.
For `Cn1cc(C(=O)Nc2ccc(Cc3ccc(F)cc3)cn2)ccc1=O` [Compound 248], in that order: 0.2 µM and 0.01 µM.
`O=C(Nc1ccc(Cc2cccc(Cl)c2)cn1)N1CCn2nccc2C1` [Compound 249]: the IC50 in test [1] (setting [3]) is greater than 45 µM; in test [2] (setting [4]), 6.75 µM.
`O=C(Nc1ccc(Cc2cccc(Cl)c2)cn1)N1CC2(COC2)C1` [Compound 250]: the values for the IC50 in test [1] (setting [3]) and in test [2] (setting [4]) were greater than 45 µM and 9.75 µM, respectively.
In the same order, the values of `Cc1cc(C(=O)Nc2ccc(Cc3cccc(F)c3)cn2)nn(C)c1=O` [Compound 251] are greater than 45 µM and 0.15 µM.
